These results are taken from patent US8895592B2, “Compounds as cannabinoid receptor ligands” (priority 2008, dated 2014).

In assay [1] the target is T1, rat CB2 receptors (Rattus norvegicus (Rat), UniProt Q9QZN9). Description: rat CB2 radioligand binding assay ([3H]CP 55,940 competition). The following applies: HEK293 membranes, 0.5 nM [3H]CP 55,940. As for the experimental part:
HEK293 cells stably expressing rat CB2 receptors were grown until a confluent monolayer was formed. Briefly, the cells were harvested and homogenized in TE buffer (50 mM Tris-HCl, 1 mM MgCl2, and 1 mM EDTA) using a polytron for 2×10 second bursts in the presence of protease inhibitors, followed by centrifugation at 45,000×g for 20 minutes. The final membrane pellet was re-homogenized in storage buffer (50 mM Tris-HCl, 1 mM MgCl2, and 1 mM EDTA and 10% sucrose) and frozen at −78° C. until used. Saturation binding reactions were initiated by the addition of membrane preparation (protein concentration of 20 μg/well for rat CB2) into wells of a deep well plate containing [^3H]CP 55,940 (120 Ci/mmol, a nonselective CB agonist commercially available from Tocris) in assay buffer (50 mM Tris, 2.5 mM EDTA, 5 mM MgCl2, and 0.5 mg/mL fatty acid free BSA, pH 7.4). After 45 min incubation at 30° C., binding reaction was terminated by the addition of 300 μl/well of cold assay buffer followed by rapid vacuum filtration through a UniFilter-96 GF/C filter plates (pre-soaked in 1 mg/mL BSA for 2 hours). The bound activity was counted in a TopCount using Microscint-20. Saturation experiments were conducted with twelve concentrations of [^3H]CP 55,940 ranging from 0.01 to 8 nM. Competition experiments were conducted with 0.5 nM [^3H]CP 55,940 and five concentrations of displacing ligands selected from the range of 0.01 nM to 10 μM. The addition of 10 μM unlabeled CP 55,940 (Tocris, Ellisville, Mo.) was used to assess nonspecific binding.

For assay [2], the target named is human CB2 receptors (Homo sapiens (Human), UniProt P34972). Description: human CB2 radioligand binding assay ([3H]CP 55,940 competition). The following applies: HEK293 membranes, 0.5 nM [3H]CP 55,940. The method, then:
HEK293 cells stably expressing human CB2 receptors were grown until a confluent monolayer was formed. Briefly, the cells were harvested and homogenized in TE buffer (50 mM Tris-HCl, 1 mM MgCl2, and 1 mM EDTA) using a polytron for 2×10 second bursts in the presence of protease inhibitors, followed by centrifugation at 45,000×g for 20 minutes. The final membrane pellet was re-homogenized in storage buffer (50 mM Tris-HCl, 1 mM MgCl2, and 1 mM EDTA and 10% sucrose) and frozen at −78° C. until used. Saturation binding reactions were initiated by the addition of membrane preparation (protein concentration of 5 μg/well for human CB2) into wells of a deep well plate containing [^3H]CP 55,940 (120 Ci/mmol, a nonselective CB agonist commercially available from Tocris) in assay buffer (50 mM Tris, 2.5 mM EDTA, 5 mM MgCl2, and 0.5 mg/mL fatty acid free BSA, pH 7.4). After 90 min incubation at 30° C., binding reaction was terminated by the addition of 300 μL/well of cold assay buffer followed by rapid vacuum filtration through a UniFilter-96 GF/C filter plates (pre-soaked in 1 mg/mL BSA for 2 hours). The bound activity was counted in a TopCount using Microscint-20. Saturation experiments were conducted with twelve concentrations of [^3H]CP 55,940 ranging from 0.01 to 8 nM. Competition experiments were conducted with 0.5 nM [^3H]CP 55,940 and five concentrations (0.01 nM to 10 μM) of displacing ligands. The addition of 10 μM unlabeled CP 55,940 (Tocris, Ellisville, Mo.) was used to assess nonspecific binding.

Assay [3] concerns the target T1, rat CB2 receptors. As to the kind of experiment: rat CB2 cyclase functional assay (HitHunter cAMP). The conditions noted are these: HEK cells, forskolin 18 μM. It counts as cell-based. As for the experimental part:
The cyclase functional assays were performed using the HitHunter™ cAMP assay kit from DiscoveRx (Fremont, Calif.) according to vendor's protocol. Briefly, HEK cells expressing CB2 or CB1 receptors (rat or human) were detached using cell dissociation buffer (Invitrogen, Carlsbad, Calif.), dispersed and placed in suspension at 10,000 cells per well in 96 well plates prior to the assay. Cell suspensions were incubated at 37° C. for 20 min with variable concentrations of test ligands and or 10 μM CP 55,940-positive control in the presence of a fixed concentration of forskolin (18 μM for rat CB2 and 37 μM for rat CB1) in Dulbescco's phosphate-buffered saline (Invitrogen, Carlsbad, Calif.) supplemented with bovine serum albumin (0.01% final concentration). The reactions were terminated by the addition of lysis buffer and the luminescence was detected following the procedure according to the manufacturer's instructions. EC50 values were calculated using sigmoidal dose-response curve fitting from Prism (GraphPad).

T1 sequence (Q9QZN9 whole entry): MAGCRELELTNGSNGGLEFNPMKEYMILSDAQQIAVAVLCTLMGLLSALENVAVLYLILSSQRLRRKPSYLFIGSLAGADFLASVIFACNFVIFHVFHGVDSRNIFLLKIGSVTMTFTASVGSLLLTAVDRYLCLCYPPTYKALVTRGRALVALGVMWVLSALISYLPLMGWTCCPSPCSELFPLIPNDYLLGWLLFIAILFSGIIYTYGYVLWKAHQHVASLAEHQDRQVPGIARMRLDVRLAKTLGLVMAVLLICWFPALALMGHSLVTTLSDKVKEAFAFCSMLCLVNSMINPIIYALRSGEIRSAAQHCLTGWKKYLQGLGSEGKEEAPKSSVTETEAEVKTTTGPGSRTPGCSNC
Sequence of human CB2 receptors (P34972 whole entry): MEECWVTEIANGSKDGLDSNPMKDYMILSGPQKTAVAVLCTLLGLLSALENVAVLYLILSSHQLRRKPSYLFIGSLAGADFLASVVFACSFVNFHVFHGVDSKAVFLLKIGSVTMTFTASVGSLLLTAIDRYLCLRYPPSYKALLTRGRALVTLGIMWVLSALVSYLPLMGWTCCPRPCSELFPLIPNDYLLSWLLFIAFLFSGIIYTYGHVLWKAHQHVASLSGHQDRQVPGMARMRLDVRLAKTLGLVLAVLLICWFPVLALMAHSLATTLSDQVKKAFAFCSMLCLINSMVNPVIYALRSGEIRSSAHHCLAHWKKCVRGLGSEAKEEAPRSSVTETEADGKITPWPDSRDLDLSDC

The term Ki denotes a measure of affinity in units of concentration, obtained from inhibition or displacement. Low values mean a stronger hold on the target, high ones a looser hold on the target. For orientation: EC50 means the concentration giving half of the maximal effect. Consider `CC(C)Cn1cc(C(C)(C)C)s/c1=N\C(=O)c1cc(Br)ccc1OC[C@@H]1CCCN1C` [Example 1, 5-bromo-N-[(2Z)-5-tert-butyl-3-isobutyl-1,3-thiazol-2(3H)-ylidene]-2-{[(2S)-1-methylpyrrolidin-2-yl]methoxy}benzamide], for which the values for the Ki in assay [1] and in assay [2] were 19 nM and 27 nM, respectively. Besides, the concentration for a half-maximal effect (EC50) in assay [3] was 0.75 nM.
For `CCCCn1cc(C(C)(C)C)s/c1=N\C(=O)c1cc(Cl)ccc1OCC(N)=O` [Example 2, 2-(2-amino-2-oxoethoxy)-N-[(2Z)-3-butyl-5-tert-butyl-1,3-thiazol-2(3H)-ylidene]-5-chlorobenzamide] the same measures were 1.1 nM, 3.1 nM and 0.07 nM.
Take `CCCCn1/c(=N/C(=O)c2cc(C(F)(F)F)ccc2OCC(C)(C)O)sc2ccncc21` [Example 21, N-[(2Z)-3-butyl[1,3]thiazolo[4,5-c]pyridin-2(3H)-ylidene]-2-(2-hydroxy-2-methylpropoxy)-5-(trifluoromethyl)benzamide]: the Ki in assay [1] stood at 9.3 nM; in assay [2], 5.4 nM. The EC50 in assay [3] was determined as 0.58 nM.
For `CC(C)Cn1cc(C(C)(C)C)s/c1=N\C(=O)c1cc(Cl)ccc1OCC1CCO1` (stereo not drawn) [Example 4, N-[(2Z)-5-tert-butyl-3-isobutyl-1,3-thiazol-2(3H)-ylidene]-5-chloro-2-(oxetan-2-ylmethoxy)benzamide], the Ki in assay [1] stood at 5.2 nM; in assay [2], 9 nM. For the same compound, in assay [3], the EC50 was 0.23 nM.
On to `CC(C)Cn1cc(C(C)(C)C)s/c1=N\C(=O)c1cc(C(F)(F)F)ccc1OCCN1CCCC1` [Example 7, N-[(2Z)-5-tert-butyl-3-isobutyl-1,3-thiazol-2(3H)-ylidene]-2-(2-pyrrolidin-1-ylethoxy)-5-(trifluoromethyl)benzamide], for which the Ki came to 12 nM in assay [1] and 32 nM in assay [2]. Further, the EC50 in assay [3] worked out at 1.3 nM.
On the same counts, the results for `CC(=O)OCCOc1ccc(C(F)(F)F)cc1C(=O)/N=c1\sc(C(C)(C)C)cn1CC(C)C` [Example 18, 2-[2-({[(2Z)-5-tert-butyl-3-isobutyl-1,3-thiazol-2(3H)-ylidene]amino}carbonyl)-4-(trifluoromethyl)phenoxy]ethyl acetate] are 1.4 nM, 16 nM and 0.19 nM.
On the same counts, the results for `CN1CCC[C@H]1COc1ccc(C(F)(F)F)cc1C(=O)/N=c1\sc(C(C)(C)C)cn1CC1(O)CCC1` [Example 11, N-[(2Z)-5-tert-butyl-3-[(1-hydroxycyclobutyl)methyl]-1,3-thiazol-2(3H)-ylidene]-2-{[(2S)-1-methylpyrrolidin-2-yl]methoxy}-5-(trifluoromethyl)benzamide] are 32 nM, 95 nM and 0.41 nM.
As to `CCCCn1cc(C(C)(C)C)s/c1=N\C(=O)c1cc(C(F)(F)F)ccc1OC[C@@H]1CCCN1C` [Example 9, N-[(2Z)-3-butyl-5-tert-butyl-1,3-thiazol-2(3H)-ylidene]-2-{[(2S)-1-methylpyrrolidin-2-yl]methoxy}-5-(trifluoromethyl)benzamide], the Ki came to 7.7 nM in assay [1] and 9.2 nM in assay [2]. In addition, in assay [3], the 50% effective concentration (EC50) amounted to 0.97 nM.
For `CC(C)Cn1cc(C(C)(C)C)s/c1=N\C(=O)c1cc(C(F)(F)F)ccc1OCC1CCOC1` (stereo not drawn) [Example 8, N-[(2Z)-5-tert-butyl-3-isobutyl-1,3-thiazol-2(3H)-ylidene]-2-(tetrahydrofuran-3-ylmethoxy)-5-(trifluoromethyl)benzamide] the same measures were 2.4 nM, 5 nM and 0.058 nM.
On the same counts, the results for `CC(C)Cn1cc(C(C)(C)C)s/c1=N\C(=O)c1cc(C(F)(F)F)ccc1OC[C@@H]1CCCN1C` [Example 5, N-[(2Z)-5-tert-butyl-3-isobutyl-1,3-thiazol-2(3H)-ylidene]-2-{[(2S)-1-methylpyrrolidin-2-yl]methoxy}-5-(trifluoromethyl)benzamide] are 18 nM, 39 nM and 1.2 nM.
On the same counts, the results for `CC(C)Cn1cc(C(C)(C)C)s/c1=N\C(=O)c1cc(C(F)(F)F)ccc1OCc1ccco1` [Example 3, N-[(2Z)-5-tert-butyl-3-isobutyl-1,3-thiazol-2(3H)-ylidene]-2-(2-furylmethoxy)-5-(trifluoromethyl)benzamide] are 8.7 nM, 7.4 nM and 1.9 nM.
Regarding `CC(C)Cn1cc(C(C)(C)C)s/c1=N\C(=O)c1cc(C(F)(F)F)ccc1OCCO` [Example 19, N-[(2Z)-5-tert-butyl-3-isobutyl-1,3-thiazol-2(3H)-ylidene]-2-(2-hydroxyethoxy)-5-(trifluoromethyl)benzamide], the Ki amounted to 0.15 nM in assay [1] and 0.73 nM in assay [2]. The EC50 in assay [3] worked out at 0.13 nM.
`CC(C)Cn1cc(C(C)(C)C)s/c1=N\C(=O)c1cc(C(F)(F)F)ccc1OC[C@@H]1CCN1C` [Example 12, N-[(2Z)-5-tert-butyl-3-isobutyl-1,3-thiazol-2(3H)-ylidene]-2-{[(2S)-1-methylazetidin-2-yl]methoxy}-5-(trifluoromethyl)benzamide]: the results for the inhibition constant Ki in assay [1] and in assay [2] were 26 nM and 37 nM, respectively. Further, in assay [3], the EC50 stood at 3.5 nM.
With `CCCCn1/c(=N/C(=O)c2cc(C(F)(F)F)ccc2OC[C@H](C)O)sc2ccncc21` [Example 29, N-[(2Z)-3-butyl[1,3]thiazolo[4,5-c]pyridin-2(3H)-ylidene]-2-{[(2S)-2-hydroxypropyl]oxy}-5-(trifluoromethyl)benzamide], the inhibition constant Ki in assay [1] stood at 2.5 nM; in assay [2], 2 nM. The concentration for a half-maximal effect (EC50) in assay [3] was 1.4 nM.
On the same counts, the results for `CCCCn1/c(=N/C(=O)c2cc(C(F)(F)F)ccc2OCCNC(C)=O)sc2ccncc21` [Example 25, 2-[2-(acetylamino)ethoxy]-N-[(2Z)-3-butyl[1,3]thiazolo[4,5-c]pyridin-2(3H)-ylidene]-5-(trifluoromethyl)benzamide] are 3.6 nM, 1.5 nM and 0.11 nM.
For `CC(C)Cn1cc(C(C)(C)C)s/c1=N\C(=O)c1cc(C(F)(F)F)ccc1OC[C@@H]1CCN1` [Example 14, 2-[(2S)-azetidin-2-ylmethoxy]-N-[(2Z)-5-tert-butyl-3-isobutyl-1,3-thiazol-2(3H)-ylidene]-5-(trifluoromethyl)benzamide] the same measures were 13 nM, 44 nM and 0.36 nM.
